Assay results: patent US10856562B2, “Flavor composition and edible compositions containing same” (MARS, INCORPORATED, priority 2013, dated 2020)
Square brackets hold non-standard residues; d marks the D form. Ends that are not written are not given here. pGlu = O=C1CC[C@@H](C(=O)O)N1

System: panelists
Assay: Attribute perception scores of flavor enhancers in solution (Example 6)
Assay type: in vivo, human
Design: key to Metallic / Numbing / Atringent / Salt / Sweet / Sour / Bitter / Umami / Sour, mean evaluation score in solution / Numbing, mean evaluation score in solution / Astringent / Umami FF: 15-point intensity scale, 0 = none, 15 = very strong
Details: for Astringent / Bitter / Flinty/Mineral / Metallic / Numbing / Salt / Sour / Sweet / Umami / Umami FF / Atringent / Mineral/Flinty / Umami/brothy: solution
Procedure: Descriptive attributes (e.g., taste, flavor and chemical feeling factors) of three use levels of pGlu-Cys (FE-35), pGlu-Cys-Gly (FE-36), pGlu-Cys-Cys (FE-37), pGlu-Cys-Val (FE-38) and pGlu-Val-Cys (UE-30) flavor composition peptides were determined. The three use levels were as follows: 1.0 ppb, 10.0 ppb and 100.0 ppb.
Data was collected for the attributes of the product in-mouth for the use levels according to the following protocol: • The samples were analyzed for flavor by six to nine members of a panel, trained and experienced in flavor evaluation using the Spectrum™ method. Samples were evaluated across multiple panel sessions. • The strength of each attribute was rated on a 15-point scale, where 0=none and 15=very strong. • This scale incorporates the ability to use tenths of a point and therefore has the potential of 150 scale differentiations. • The scale may be expanded beyond 15 points to include extreme ratings if necessary.
A summary of the concentrations of NaCl, water and flavor composition peptides in the solution samples is described in table 24.
The panelists evaluated each sample for the attributes described by table 25.

[1] = 10.0 ppb, mean evaluation score
[2] = 100.0 ppb, mean evaluation score
[3] = Concentration 1, MAX, 15-point scale
[4] = Concentration 1, MEAN, 15-point scale
[5] = Concentration 1, MIN, 15-point scale
[6] = Concentration 10, MAX, 15-point scale
[7] = Concentration 10, MEAN, 15-point scale
[8] = Concentration 10, MIN, 15-point scale
[9] = Concentration 100, MAX, 15-point scale
[10] = Concentration 100, MEAN, 15-point scale
[11] = Concentration 100, MIN, 15-point scale

[pGlu]-Cys [FE-35] was tested, and the “Mineral/Flinty aromatic in solution as the concentration increases” value (1.0 to 100 ppb) was “show no distinct pattern”, the “Salt perception level in solution as the concentration increases” value (1.0 to 100 ppb) was “show no distinct pattern” and the “Umami aromatic in solution as the concentration increases” value (1.0 to 100 ppb) was “decreases slightly”. The “Umami feeling factor in solution as the concentration increases” value (1.0 to 100 ppb) was “shows no distinct pattern”, the Astringent (1.0 ppb, mean evaluation score) was 0.0 and the Bitter (1.0 ppb, mean evaluation score) was 0.1. It also gave a Flinty/Mineral (1.0 ppb, mean evaluation score) of 0.9, a Metallic (1.0 ppb, mean evaluation score) of 0.0 and a Numbing (1.0 ppb, mean evaluation score) of 0.0. The Salt (1.0 ppb, mean evaluation score) was 1.8, the Sour (1.0 ppb, mean evaluation score) was 0.0 and the Sweet (1.0 ppb, mean evaluation score) was 0.3. For the same substance, the Umami (1.0 ppb, mean evaluation score) was 1.5, the “Umami FF” value (1.0 ppb, mean evaluation score) was 1.5 and the Astringent [1] was 0.0. The Bitter [1] was 0.0, the Flinty/Mineral [1] was 0.9 and the Metallic [1] was 0.3. For the same substance, the Numbing [1] was 0.0, the Salt [1] was 2.6 and the Sour [1] was 0.0. The Sweet [1] was 0.3, the Umami [1] was 0.8 and the “Umami FF” value [1] was 1.1. The Astringent [2] was 0.0, the Bitter [2] was 0.0 and the Flinty/Mineral [2] was 0.7. For the same substance, the Metallic [2] was 0.3, the Numbing [2] was 0.0 and the Salt [2] was 2.0. It also gave a Sour [2] of 0.0, a Sweet [2] of 0.2 and a Umami [2] of 0.2. The “Umami FF” value [2] was 1.1, the Atringent [3] was 0.0 and the Bitter [3] was 0.5. It also gave a Metallic [3] of 0.0, a Mineral/Flinty [3] of 1.0 and a Numbing [3] of 0.0. For the same substance, the Salt [3] was 2.0, the Sour [3] was 0.0 and the Sweet [3] was 1.0. For the same substance, the Umami [3] was 2.0, the Umami/brothy [3] was 2.0 and the Atringent [4] was 0.0. The Bitter [4] was 0.1, the Metallic [4] was 0.0 and the Mineral/Flinty [4] was 0.9. It also gave a Numbing [4] of 0.0, a Salt [4] of 1.8 and a Sour [4] of 0.0. For the same substance, the Sweet [4] was 0.3, the Umami [4] was 1.5 and the Umami/brothy [4] was 1.5. It also gave an Atringent [5] of 0.0, a Bitter [5] of 0.0 and a Metallic [5] of 0.0. It also gave a Mineral/Flinty [5] of 0.5, a Numbing [5] of 0.0 and a Salt [5] of 1.5. For the same substance, the Sour [5] was 0.0, the Sweet [5] was 0.0 and the Umami [5] was 1.0. The Umami/brothy [5] was 1.0, the Atringent [6] was 0.0 and the Bitter [6] was 0.0. For the same substance, the Metallic [6] was 2.0, the Mineral/Flinty [6] was 1.2 and the Numbing [6] was 0.0. It also gave a Salt [6] of 3.0, a Sour [6] of 0.0 and a Sweet [6] of 1.0. For the same substance, the Umami [6] was 2.0, the Umami/brothy [6] was 2.0 and the Atringent [7] was 0.0. The Bitter [7] was 0.0, the Metallic [7] was 0.3 and the Mineral/Flinty [7] was 0.9. For the same substance, the Numbing [7] was 0.0, the Salt [7] was 2.6 and the Sour [7] was 0.0. The Sweet [7] was 0.3, the Umami [7] was 1.1 and the Umami/brothy [7] was 0.8. For the same substance, the Atringent [8] was 0.0, the Bitter [8] was 0.0 and the Metallic [8] was 0.0. The Mineral/Flinty [8] was 0.0, the Numbing [8] was 0.0 and the Salt [8] was 2.2. For the same substance, the Sour [8] was 0.0, the Sweet [8] was 0.0 and the Umami [8] was 0.0. It also gave a Umami/brothy [8] of 0.0, an Atringent [9] of 0.0 and a Bitter [9] of 0.0. It also gave a Metallic [9] of 1.0, a Mineral/Flinty [9] of 1.5 and a Numbing [9] of 0.0. The Salt [9] was 2.5, the Sour [9] was 0.0 and the Sweet [9] was 1.0. The Umami [9] was 1.5, the Umami/brothy [9] was 1.0 and the Atringent [10] was 0.0. For the same substance, the Bitter [10] was 0.0, the Metallic [10] was 0.3 and the Mineral/Flinty [10] was 0.7. For the same substance, the Numbing [10] was 0.0, the Salt [10] was 2.0 and the Sour [10] was 0.0. It also gave a Sweet [10] of 0.2, a Umami [10] of 1.1 and a Umami/brothy [10] of 0.2. For the same substance, the Atringent [11] was 0.0, the Bitter [11] was 0.0 and the Metallic [11] was 0.0. For the same substance, the Mineral/Flinty [11] was 0.0, the Numbing [11] was 0.0 and the Salt [11] was 1.5. It also gave a Sour [11] of 0.0, a Sweet [11] of 0.0 and a Umami [11] of 0.0. For the same substance, the Umami/brothy [11] was 0.0.
